Test systems include HCT-15; HL-60; HOP-62; HOP-92; HT-29; MDA-MB-435; MOLT-4; OVCAR-3; RPMI-8226; SF-295; SK-MEL-28; SNB-19; SNB-75; UO-31; CAKI-1; COLO 205; HCC 2998; NCI/ADR-RES; SF-539.
What all share (assay): inhibition of tumour cell growth, NCI panel, 48 h

Results on nine molecules are retold here after ChEMBL document CHEMBL1201862, “PubChem BioAssay data set” (2004).

Each structure is given as a SMILES string.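 48-hour exposure; five concentrations; linearly interpolated endpoints. Abbreviation: GI50, concentration required for 50% inhibition of growth.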 Activity calls are given as the source filed them. No stated cut-off is given here; in the data, active = GI50 up to about 1.1 µM and inactive = higher. A value given as a limit tells only on which side of the number the result lay.

Take `COc1ccc(O)c(/C=N/CCC/N=C/c2cc(OC)ccc2O)c1`: the GI50 in the experiment on HCT-15 is 18.1 µM; with HL-60, 1.21 µM (inactive); in the experiment on HOP-62, 52.1 µM (inactive); in the experiment with HOP-92, 20.2 µM (inactive); with HT-29 it was 37.5 µM (inactive); in the experiment on MDA-MB-435, 22.6 µM (inactive). Also, the GI50 in the experiment on MOLT-4 was 16.6 µM (inactive); in the experiment with OVCAR-3 it was 6.59 µM (inactive); in the experiment on RPMI-8226, 11.7 µM (inactive); in the experiment with SF-295, 18.1 µM (inactive); with SK-MEL-28, 46.2 µM (inactive); in the experiment on SNB-19, 21.6 µM (inactive). The GI50 with SNB-75 is 18.3 µM (inactive); with UO-31, 33.5 µM (inactive).
On to `CCOC(=O)C(=[N+]=[N-])C(=O)Nc1nn2nnnc2c2ccccc12`, for which the GI50 in the experiment on CAKI-1, with COLO 205, in the experiment with HCC 2998, with HL-60, with HOP-62 and in the experiment with HOP-92 was > 100 µM (inactive) each time. Besides, the GI50 in the experiment with HT-29, in the experiment with MDA-MB-435, in the experiment on MOLT-4, with NCI/ADR-RES, with OVCAR-3 and with RPMI-8226 was > 100 µM (inactive) each time. In addition, the GI50 was > 100 µM (inactive) in the experiment with SF-295; > 100 µM (inactive) in the experiment with SF-539; > 100 µM (inactive) in the experiment with SK-MEL-28; > 100 µM (inactive) in the experiment on SNB-19; 33.8 µM (inactive) with SNB-75; > 100 µM (inactive) with UO-31.
`Cc1ccc(S(=O)OC2c3ccccc3Cc3ccccc32)cc1` (stereo unspecified): the GI50 was 17.3 µM (inactive) in the experiment with CAKI-1; 17.5 µM (inactive) with COLO 205; 19.1 µM (inactive) in the experiment on HCC 2998; 19.9 µM in the experiment with HCT-15; 17.6 µM (inactive) in the experiment on HL-60; 17.5 µM (inactive) in the experiment with HOP-62. Further, the GI50 in the experiment on HOP-92 was 17.2 µM (inactive); with HT-29, 32.1 µM (inactive); with MOLT-4, 19.2 µM (inactive); in the experiment on OVCAR-3, 21.5 µM (inactive); in the experiment on RPMI-8226 it was 36.1 µM (inactive); in the experiment on SF-295, 23.9 µM (inactive). In addition, the GI50 in the experiment on SF-539 was 18.5 µM (inactive); with SK-MEL-28 it was 19.2 µM (inactive); in the experiment with SNB-19 it was 23.8 µM (inactive); in the experiment with SNB-75 it was 17.9 µM (inactive); in the experiment on UO-31 it was 18.3 µM (inactive).
Turning to `O=C1ON=C2C3CC4CC12CC1(C3)C(=O)ON=C41`, the GI50 in the experiment on CAKI-1, in the experiment with COLO 205, in the experiment with HCC 2998, in the experiment with HL-60, in the experiment with HOP-62 and with HOP-92 was > 100 µM (inactive) each time. For the same molecule, the GI50 with HT-29, with MDA-MB-435, in the experiment on MOLT-4, with NCI/ADR-RES, in the experiment with OVCAR-3 and in the experiment with RPMI-8226 was > 100 µM (inactive) in each case. In addition, the GI50 with SF-295, in the experiment with SF-539, in the experiment with SK-MEL-28, with SNB-19, in the experiment with SNB-75 and with UO-31 was > 100 µM (inactive) in each case.
Take `N#CC(C(=O)C(=O)Nc1ccc(Cl)c(Cl)c1)c1ccc(Cl)cc1` (stereo unspecified): the GI50 was > 100 µM (inactive) with CAKI-1; 45.1 µM (inactive) in the experiment on COLO 205; 51.9 µM (inactive) in the experiment on HCC 2998; 32.5 µM with HCT-15; 47.2 µM (inactive) in the experiment with HL-60; > 100 µM (inactive) in the experiment with HOP-62. Further, the GI50 in the experiment on HOP-92 was 36.4 µM (inactive); in the experiment with HT-29, 69.2 µM (inactive); with MOLT-4 it was 64.7 µM (inactive); in the experiment on OVCAR-3, 37.7 µM (inactive); in the experiment on RPMI-8226 it was 35.2 µM (inactive); in the experiment with SF-295, 87.9 µM (inactive). The GI50 was > 100 µM (inactive) in the experiment on SF-539; > 100 µM (inactive) with SK-MEL-28; 65.5 µM (inactive) in the experiment with SNB-19; > 100 µM (inactive) in the experiment with SNB-75; 47.1 µM (inactive) in the experiment with UO-31.
On to `Cn1c(=O)c2nc(-c3ccc(Cl)cc3)oc2n(C)c1=O`, for which the GI50 was > 100 µM (inactive) with CAKI-1; > 100 µM (inactive) in the experiment with HCC 2998; > 100 µM in the experiment on HCT-15; > 100 µM (inactive) in the experiment on HL-60; > 100 µM (inactive) with HOP-92; > 100 µM (inactive) with HT-29. Also, the GI50 with MOLT-4, with OVCAR-3, in the experiment on RPMI-8226, in the experiment on SF-295, in the experiment on SF-539 and in the experiment on SK-MEL-28 was > 100 µM (inactive) each time. The GI50 with SNB-19, in the experiment with SNB-75 and in the experiment on UO-31 was > 100 µM (inactive) in each case.
Take `O=c1n(CCCN2CCN(c3cccc(Cl)c3)CC2)nc2n1-c1ccc3ccccc3c1SC2`: the GI50 in the experiment with CAKI-1 is > 100 µM (inactive); with COLO 205, 4.4 µM (inactive); with HCT-15, > 100 µM; in the experiment with HL-60, > 100 µM (inactive); in the experiment with HOP-62, > 100 µM (inactive); with HOP-92, > 100 µM (inactive). Further, the GI50 is 9.04 µM (inactive) in the experiment on HT-29; > 100 µM (inactive) in the experiment with MDA-MB-435; 7.93 µM (inactive) in the experiment with MOLT-4; > 100 µM (inactive) in the experiment with NCI/ADR-RES; > 100 µM (inactive) in the experiment on OVCAR-3; 58.9 µM (inactive) with RPMI-8226. For the same molecule, the GI50 in the experiment on SF-295, in the experiment with SF-539, in the experiment with SK-MEL-28, with SNB-19 and with SNB-75 was > 100 µM (inactive) in each case.
With `CCOc1ccc(NC(=O)/C=C/c2ccco2)cc1`, the GI50 was > 100 µM (inactive) in the experiment on CAKI-1; 36.1 µM (inactive) in the experiment on COLO 205; 35.2 µM (inactive) in the experiment on HCC 2998; 41.2 µM in the experiment with HCT-15; 11.9 µM (inactive) in the experiment on HL-60; 26.4 µM (inactive) in the experiment on HT-29. Besides, the GI50 in the experiment with MDA-MB-435 was 5.98 µM (inactive); with MOLT-4, 40 µM (inactive); with NCI/ADR-RES, 30.8 µM (inactive); in the experiment with OVCAR-3 it was > 10 µM (inactive); in the experiment on RPMI-8226 it was 32.3 µM (inactive); in the experiment with SF-295, 61.8 µM (inactive). The GI50 in the experiment with SF-539 is 26 µM (inactive); with SK-MEL-28, > 100 µM (inactive); in the experiment with SNB-19, > 100 µM (inactive); in the experiment on SNB-75, 84.3 µM (inactive); in the experiment with UO-31 it was 87.1 µM (inactive).
Take `Cc1cc(Cl)ccc1NC(=O)/C(CC(=O)CC(c1ccccc1)c1c(O)c2ccccc2oc1=O)=N\O` (stereo unspecified): the GI50 in the experiment with CAKI-1 was > 100 µM (inactive); in the experiment with COLO 205 it was > 100 µM (inactive); in the experiment on HCC 2998, > 100 µM (inactive); with HCT-15 it was > 100 µM; in the experiment with HL-60 it was > 100 µM (inactive); with HOP-62, > 100 µM (inactive). Also, the GI50 was 39.2 µM (inactive) with HOP-92; > 100 µM (inactive) in the experiment with HT-29; > 100 µM (inactive) with MDA-MB-435; > 100 µM (inactive) with MOLT-4; > 100 µM (inactive) with NCI/ADR-RES; > 100 µM (inactive) with OVCAR-3. The GI50 in the experiment with SF-295 is > 100 µM (inactive); with SF-539, > 100 µM (inactive); with SK-MEL-28 it was > 100 µM (inactive); in the experiment on SNB-19, > 100 µM (inactive); with SNB-75, > 100 µM (inactive); in the experiment on UO-31, 65 µM (inactive).
